According to the NIST ThermoML archive (doi:10.1016/j.tca.2007.10.001):

How the values were obtained:
[1] = Crystal; DTA
[2] = Molar enthalpy of transition or fusion; conditions: Crystal
[3] = molar heat capacity at constant pressure; conditions: 101.33 kPa, Crystal

c1cnc2c(c1)ccc1cccnc12 [1,10-phenanthroline]
Conditions | Molar enthalpy of transition or fusion [kcal/mol] | Triple point temperature [K]
[1] | – | 391.1
[2] | 2.82 | –

[3]
Conditions | molar heat capacity at constant pressure [J/K/mol]
298.2 K | 115
300.2 K | 116
302.2 K | 117
304.2 K | 125
306.2 K | 127
308.2 K | 133
310.2 K | 140
312.2 K | 150
314.2 K | 156
316.2 K | 165
318.2 K | 175
320.2 K | 184
322.2 K | 192
324.2 K | 199
326.2 K | 206
328.2 K | 213
330.2 K | 221
332.2 K | 226
334.2 K | 235
336.2 K | 237
338.2 K | 245
340.2 K | 247
342.2 K | 253
344.2 K | 253
346.2 K | 256
348.2 K | 260
350.2 K | 263
352.2 K | 265
354.2 K | 270
356.2 K | 271
358.2 K | 276
360.2 K | 279

Cc1ccc2ccc3ccc(C)nc3c2n1 [2,9-dimethyl-1,10-phenanthroline]
Conditions | Molar enthalpy of transition or fusion [kcal/mol] | Triple point temperature [K]
[1] | – | 435.9
[2] | 4.21 | –

[3]
Conditions | molar heat capacity at constant pressure [J/K/mol]
298.2 K | 253
303.2 K | 274
308.2 K | 292
313.2 K | 306
318.2 K | 321
323.2 K | 331
328.2 K | 345
333.2 K | 354
338.2 K | 361
343.2 K | 370
348.2 K | 373
353.2 K | 374
358.2 K | 383
363.2 K | 383
368.2 K | 387
373.2 K | 384
378.2 K | 386
383.2 K | 390
388.2 K | 386
393.2 K | 383
